Results on 14 compounds are retold here after patent US6916923B2 (Hoffmann-La Roche Inc., priority 1999, dated 2005).

Broadly, the melting point is the temperature of the solid-liquid transition. By IC50 is commonly meant the concentration at which inhibition is half-maximal.

A value given as a limit tells only on which side of the number the result lay.

Data set [1] concerns colon adenocarcinoma line SW480. Put plainly: SW480 cell-based antiproliferative (MTT) assay. Particulars: Homo sapiens, SW480, 144 h, 1000 cells per well, 6 days post addition of test compound, read-out: Antiproliferative Activity SW480 (colon) Assay - IC50 Range. Summed up:
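Both lines were plated at 1000 cells/well and treated with compounds in duplicate, with 0.3% final DMSO. MTT readout (570/650 nm) was taken at 4 days for HCT-116 and at 6 days for SW480. IC50 came from log-concentration regression of blank-corrected percent inhibition.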

In data set [2] the test system is colon carcinoma line HCT-116. Put plainly: HCT-116 cell-based antiproliferative (MTT) assay. Particulars: Homo sapiens, HCT-116, 96 h, 1000 cells per well, 4 days post addition of test compound, read-out: Antiproliferative Activity HCT 116 (colon) Assay - IC50 Range. Here is the method:
The estrogen receptor negative epithelial breast carcinoma line (MDA-MB-435) was purchased from American Type Cell Culture Collection (ATCC; Rockville, Md.) and was grown in the medium recommended by ATCC. For analysis of the effect of the test compounds on growth of these cells, the cells were plated at 2000 cells per well in a 96-well tissue culture plate, and were incubated overnight at 37° C. with 5% CO2. The next day, the test compounds were dissolved in 100% dimethyl sulfoxide (DMSO) to yield a 10 mM stock solution. Each compound was diluted with sterile medium to 1 mM in a sufficient quantity to yield a final concentration of 120 μM. The compounds were then serially diluted in medium with 1.2% DMSO. One-fourth final volume of the diluted compounds was transferred to 96 well plates. Test compounds were assayed in duplicate. DMSO was added to a row of “control cells” such that the final concentration of DMSO in each well was 0.3%. Wells to which no cells were added served as the “blank.” Wells to which no inhibitor was added served as “no inhibitor control”. The plates were returned to the incubator, and 5 days post addition of test compound, were analyzed as described below.
3-(4,5-Dimethylthiazole-2-yl)-2,5-diphenyl-2H-tetrazolium bromide (thiazolyl blue; MTT) was added to each well to yield a final concentration of 1 mg/mL. The plates were then incubated at 37° C. for 3 hours. The plates were centrifuged at 1000 rpm for 5 minutes prior to aspiration of the MTT-containing medium. The MTT-containing medium was then removed and 100 μL 100% ethanol was added to each well to dissolve the resulting formazan metabolite. To ensure complete dissolution, plates were shaken for 15 minutes at room temperature. Absorbencies were read in a microtiter plate reader (Molecular Dynamics) at a wavelength of 570 nm with a 650 nm reference. Percent inhibition was calculated by subtracting the absorbance of the blank (no cell) wells from all wells, then subtracting the division of the average absorbance of each test duplicate by the average of the controls from 1.00. Inhibitory concentrations (IC50) were determined from the linear regression of a plot of the logarithm of the concentration versus the percent inhibition.
The colon adenocarcinoma line SW480 and the colon carcinoma line HCT-116 also were obtained from the ATCC and were tested according to the same protocol provided above for MDA-MB435 cell based assay with the following modifications. Cell line SW480 was plated at 1000 cells per well and analyzed at 6 days post addition of the test compound. Cell line HCT-116 was plated at 1000 cells per well and analyzed at 4 days post addition of test compound.

Data set [3] has as its system estrogen receptor negative epithelial breast carcinoma line (MDA-MB-435). Put plainly: MDA-MB-435 cell-based antiproliferative (MTT) assay. To be noted: Homo sapiens, MDA-MB-435, 120 h, 2000 cells per well, 5 days post addition of test compound, read-out: Antiproliferative Activity of MDA-MB435 (breast) Assay - IC50 Range. Summed up:
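Cells plated at 2000/well, treated next day with serially diluted compounds (0.3% DMSO final) in duplicate for 5 days at 37° C. MTT at 1 mg/mL for 3 h, formazan dissolved in ethanol, read at 570 nm with 650 nm reference; IC50 from linear regression of log concentration versus percent inhibition.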

Data set [4] deals with T1, Recombinant active human Cyclin E/CDK2 complexes (Homo sapiens, UniProt P24941).
T1 construct: made in house; host or cells: insect cells
Put plainly: CDK2 FlashPlate Assay (inhibition of Rb phosphorylation). The data set is classed as biochemical. To be noted: Cyclin E/CDK2, Rb substrate, 33P-ATP, 25 minutes at room temperature; read-out: Inhibition of Cdk2 - IC50 Range. In outline:
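Insect-cell-derived recombinant Cyclin E/CDK2 incubated with Rb-coated FlashPlates, ^33P-ATP and compound dilutions for 25 min at room temperature with shaking; wells washed and counted by scintillation. Percent inhibition of Rb phosphorylation from duplicate counts, corrected by no-enzyme (nonspecific) and no-compound (total) controls.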

Consider `Clc1ccccc1-c1nccnc2c1cc(Cl)c1nncc12` [Compound A4, 5-(2-chlorophenyl)-7-chloro-pyrazolo[3,4][1,4]benzodiazepine], for which the melting point is greater than 300 °C.

Regarding `O=[N+]([O-])c1ccc2c(c1)C(c1ccccc1Cl)=Nc1c(n[nH]c1CCc1ccccc1)N2` [Compound B5, 3-(2-phenylethyl)-5-(2-chlorophenyl)-7-nitro-pyrazolo[3,4][1,4]benzodiazepine], the IC50 lay within 10 to 30 µM in data set [1], 10 to 30 µM in data set [2], 10 to 30 µM in data set [3] and 1 to 9.99 µM in data set [4].

Regarding `CC(C)c1[nH]nc2c1N=C(c1ccccc1Cl)c1cc([N+](=O)[O-])ccc1N2` [Compound B6], the half-inhibitory concentration (IC50) is 0.01 to 1 µM in data set [1], 1.1 to 9.99 µM in data set [2], 0.01 to 1 µM in data set [3] and 0.01 to 0.99 µM in data set [4].

With `Cc1[nH]nc2c1N=C(c1ccccc1F)c1cc(C#N)ccc1N2` [Compound B7, 3-methyl-5-(2-fluorophenyl)-pyrazolo[3,4][1,4]benzodiazepine-7-carbonitrile], the concentration for half-maximal inhibition (IC50) in data set [1] fell in the range of 0.01 to 1 µM; in data set [2] it was 1.1 to 9.99 µM; in data set [3], 0.01 to 1 µM; in data set [4], 0.01 to 0.99 µM.

Turning to `O=[N+]([O-])c1ccc2c(c1)C(c1ccccc1Cl)=Nc1c(n[nH]c1Cc1ccccc1)N2` [Compound B8, 3-(phenylmethyl)-5-(2-chlorophenyl)-7-nitro-pyrazolo[3,4][1,4]benzodiazepine], the IC50 in data set [1] was 10 to 30 µM; in data set [2], 10 to 30 µM; in data set [3] it was 10 to 30 µM; in data set [4] it was 1 to 9.99 µM.

With `CCOC(=O)c1ccc2c(c1)C(c1ccccc1F)=Nc1c(n[nH]c1C)N2` [Compound B9, 3-methyl-5-(2-fluorophenyl)-7-carboethoxy-pyrazolo[3,4][1,4]benzodiazepine], the half-maximal inhibitory concentration (IC50) in data set [1] was in the range of 1.1 to 9.99 µM; in data set [2], 1.1 to 9.99 µM; in data set [3], 1.1 to 9.99 µM; in data set [4], 0.01 to 0.99 µM.

Regarding `CCCc1[nH]nc2c1N=C(c1ccccc1Cl)c1cc([N+](=O)[O-])ccc1N2` [Compound B24, 3-propyl-5-(2-chlorophenyl)-7-nitro-pyrazolo[3,4][1,4]benzodiazepine], the half-inhibitory concentration (IC50) in data set [1] lay in the range of 10 to 30 µM; in data set [2] it was 10 to 30 µM; in data set [3] it was 10 to 30 µM; in data set [4], 0.01 to 0.99 µM.

`O=[N+]([O-])c1ccc2c(c1)C(c1ccccc1Cl)=Nc1c(n[nH]c1C1CC1)N2` [Compound B25, 3-cyclopropyl-5-(2-chlorophenyl)-7-nitro-pyrazolo[3,4][1,4]benzodiazepine]: the IC50 lay within 1.1 to 9.99 µM in data set [1], 1.1 to 9.99 µM in data set [2], 0.01 to 1 µM in data set [3] and 0.01 to 0.99 µM in data set [4].

Compound `Cc1cnc2c(cc(N)c3nncc32)c(-c2ccccc2Cl)n1` [Compound C4, 3-methyl-5-(2-chlorophenyl)-7-amino-pyrazolo[3,4][1,4]benzodiazepine] yielded a melting point of 260 to 263 °C.

For the compound `Nc1ccc2c(c1)C(c1ccccc1Cl)=Nc1c[nH]nc1N2` [Compound C5, 5-(2-chlorophenyl)-7-amino-pyrazolo[3,4][1,4]benzodiazepine], the IC50 in data set [1] lay within 10 to 30 µM; in data set [2] it was 10 to 30 µM; in data set [3] it was 10 to 30 µM; in data set [4], 1 to 9.99 µM.

Take `Cc1cnc2c(cc(NS(C)(=O)=O)c3nncc32)c(-c2ccccc2Cl)n1` [Compound C9, N-(3-methyl-5-(2-chlorophenyl)-pyrazolo[3,4][1,4]benzodiazepin-7-yl)-methanesulfonamide]: the melting point fell in the range of 196 to 198 °C.

`NC(=O)c1cnc2c(cc([N+](=O)[O-])c3nncc32)c(-c2ccccc2Cl)n1` [Compound C10, 5-(2-chlorophenyl)-7-nitro-pyrazolo[3,4][1,4]benzodiazepine-3-carboxamide] had a melting point greater than 340 °C.

Compound `N#Cc1cnc2c(cc([N+](=O)[O-])c3nncc32)c(-c2ccccc2Cl)n1` [Compound C18, 5-(2-chlorophenyl)-7-nitro-pyrazolo[3,4][1,4]benzodiazepine-3-carbonitrile] showed a melting point of 193 to 196 °C.

Compound `Cc1cnc2c(cc(C(N)=O)c3nncc32)c(-c2ccccc2F)n1` [Compound C19, 3-methyl-5-(2-fluorophenyl)-pyrazolo[3,4][1,4]benzodiazepine-7-carboxamide] registered a melting point of 323 to 324 °C.
